For one data set, the system named is AMO-1 cells. Put plainly: Antiproliferation assay (CellTiter-Glo, 72 h), AMO-1. The settings on record: IC50, median, AMO-1, 72 h, read-out: Antiproli AMO-1 [M] median. Format: cell-based. How it is done: Assessment of the Anti-Proliferative Effect of Compounds in Different Cell Lines
The impact of compounds on the proliferation of different cell lines was assessed using the CellTiter-Glo® Luminescent Cell Viability reagent from Promega (G7573).
In parallel, cells were plated in a reference (day 0) plate for time zero determination.
Rim wells were excluded. The cells were incubated for 72 h hours in a humidified incubator at 37° C. The day 0 plate was measured by adding 30 μL/well of CTG solution (CellTiter-Glo® Luminescent Cell Viability reagent, Promega G7573) to time zero wells in the reference plate followed by a 10 minutes incubation and luminescence reading at 0.1 ms. using the PHERAstar FS microplate reader (BMG Labtech).
After 72 h incubation, the treated plates were measured in the same way as the day 0 plate mentioned above.
For orientation: ATP-based viability assays read luminescence as a measure of living cells.

Data set [1] has as its system SUDHL5 cells. Put plainly: Induction of caspase-3/7 activity (Caspase-Glo 3/7), SUDHL5. Format: cell-based. As to conditions: EC50, median, SUDHL5, 3 h treatment. As to the method:
(§1) Induction of Caspase-3/7 Activity Upon Treatment of Cells with Selected Compounds
(§2) The BH3-domain of MCL-1 sequesters pro-apoptotic proteins, thereby inhibiting apoptosis. In contrast, MCL-1 inhibitors are expected to antagonize this effect leading to an increase in apoptosis, which can be determined by measuring the activity of caspase-3/7.
(§3) The activity of caspase-3/7 was determined in DLBCL (Diffuse large B-cell lymphoma) cell lines (SUDHL5 and SUDHL10) upon treatment with different compounds, using the Caspase-Glo® 3/7 reagent from Promega (G8092).
(§4) Rim wells were excluded. The cells were incubated for 3 h hours in a humidified incubator at 37° C.
(§5) For the evaluation of the results, the background measured with “medium-only” was subtracted from all other values.

Data set [2] has as its system SUDHL5 cells. As to the kind of experiment: Induction of cytotoxicity (CellTiter-Glo, 5 h), SUDHL5. The settings on record: SUDHL5, 5 h.
For another data set, the system named is SUDHL10 cells. Put plainly: Induction of caspase-3/7 activity (Caspase-Glo 3/7), SUDHL10. As to conditions: EC50, median; SUDHL10, 3 h treatment. Format: cell-based. How it is done:
as §1, §2, §3, §4, §5

Setting [3] is: Homo sapiens, SU-DHL-5, 5 h, read-out: Cytotox SUDHL5 [M] (median), IC50, median.
Setting [4] is: read-out: Cytotox SUDHL5 [M] (median), IC50, median.

Where a name gives a salt, the structure may show the parent alone. Read-outs that look alike come from different tables or passages of the source.

As to `Cc1nn(C)c2c1-c1c(Cl)ccc3c(CCCOc4cccc5ccccc45)c(C(=O)O)n(c13)CCCCOC2` (racemic) [Example 2, rac-4-chloro-1,3-dimethyl-7-[3-(naphthalen-1-yloxy)propyl]-1,10,11,12,13,15-hexahydropyrazolo[4′,3′:9,10][1,6]oxazacycloundecino[8,7,6-hi]indole-8-carboxylic acid], the IC50 in the data set on AMO-1 cells (Homo sapiens, AMO1, 72 h) amounted to 4.9e-06 M.

For orientation: EC50 means the concentration giving half of the maximal effect. A lower EC50 goes with a more potent agent. Regarding `Cc1c2c(nn1C)COCC(F)(F)CCn1c(C(=O)O)c(CCCOc3cccc4cc(F)ccc34)c3ccc(Cl)c-2c31` (racemic) [Example 90, (rac)-4-Chloro-12,12-difluoro-7-{3-[(6-fluoronaphthalen-1-yl)oxy]propyl}-2,3-dimethyl-2,10,11,12,13,15-hexahydropyrazolo[4′,3′:9,10][1,6]oxazacycloundecino[8,7,6-hi]indole-8-carboxylic acid], a half-maximal response with SUDHL5 cells [1] (Homo sapiens, SU-DHL-5, 3 h) (EC50) required 8.5 µM. For the same molecule, the IC50 in the data set with AMO-1 cells (Homo sapiens, AMO1, 72 h) is 4.9e-06 M; with SUDHL5 cells [2] (setting [3]), 9.9e-06 M.

For `CCc1c2c(nn1C)CCCCCCn1c(C(=O)O)c(CCCOc3cccc4cc(F)ccc34)c3ccc(Cl)c-2c31` (racemic) [Example 54, (rac)-4-chloro-3-ethyl-7-{3-[(6-fluoronaphthalen-1-yl)oxy]propyl}-2-methyl-10,11,12,13,14,15-hexahydro-2H-pyrazolo[4′,3′:4,5]azacycloundecino[3,2,1-hi]indole-8-carboxylic acid], a half-maximal effect in the data set with SUDHL5 cells [1] (Homo sapiens, SU-DHL-5, 3 h) (EC50) was put at 3.5 µM.

As to `Cc1c2c(nn1C)COCC1CCC1Cn1c(C(=O)O)c(CCCOc3cccc4ccccc34)c3ccc(Cl)c-2c31` (single isomer, unassigned; stereoisomer 1) [Example 63], the concentration for a half-maximal effect (EC50) in the data set on SUDHL5 cells [1] came to 9 µM.

On to `CCc1nn(CCN2CCOCC2)c2c1-c1c(Cl)ccc3c(CCCOc4cccc5ccccc45)c(C(=O)O)n(c13)C/C=C\CN(C)C2` (single isomer, unassigned; enantiomer 1) [Example 43, (11Z)-4-chloro-3-ethyl-14-methyl-1-[2-(morpholin-4-yl)ethyl]-7-{3-[(naphthalen-1-yl)oxy]propyl}-10,13,14,15-tetrahydro-1H-pyrazolo[3′,4′:8,9][1,6]diazacycloundecino[10,11,1-hi]indole-8-carboxylic acid-ammonia salt (Enantiomer 1)], for which the IC50 with SUDHL5 cells [2] (setting [3]) worked out at 6e-07 M.

`CCc1c2c(nn1C)COCCCCn1c(C(=O)O)c(CCCOc3cccc4cc(F)ccc34)c3ccc(Cl)c-2c31` (single isomer, unassigned; enantiomer 2) [Example 38, (−)-4-chloro-3-ethyl-7-{3-[(6-fluoronaphthalen-1-yl)oxy]propyl}-2-methyl-2,10,11,12,13,15-hexahydropyrazolo[4′,3′:9,10][1,6]oxazacycloundecino[8,7,6-hi]indole-8-carboxylic acid-N-ethylethanamine salt (Enantiomer 2)] showed a concentration giving a half-maximal response (EC50) in the data set on SUDHL5 cells [1] (Homo sapiens, SU-DHL-5, 3 h) of 5.4 µM.

Molecule `CCc1c2c(nn1C)CN(C)CCCCn1c(C(=O)O)c(CCCOc3cccc4ccccc34)c3ccc(Cl)c-2c31` (single isomer, unassigned; enantiomer 2) [Example 24, 4-chloro-3-ethyl-2,14-dimethyl-7-[3-(naphthalen-1-yloxy)propyl]-10,11,12,13,14,15-hexahydro-2H-pyrazolo[3′,4′:8,9][1,6]diazacycloundecino[10,11,1-hi]indole-8-carboxylic acid (Enantiomer 2)] displayed a half-maximal effective concentration (EC50) in the data set on SUDHL5 cells [1] (Homo sapiens, SU-DHL-5, 3 h) of 4.5 µM.

With `CCc1c2c(nn1C)CN(C)CCCCn1c(C(=O)O)c(CCCOc3cccc4ccccc34)c3ccc(Cl)c-2c31` (racemic) [Example 22, (rac)-4-chloro-3-ethyl-2,14-dimethyl-7-[3-(naphthalen-1-yloxy)propyl]-10,11,12,13,14,15-hexa-hydro-2H-pyrazolo[3′,4′:8,9][1,6]diazacycloundecino[10,11,1-hi]indole-8-carboxylic acid], the IC50 with AMO-1 cells (Homo sapiens, AMO1, 72 h) is 6.6e-07 M.

In the case of `Cc1c2c(nn1C)COCC(F)(F)CCn1c(C(=O)O)c(CCCOc3cccc4ccccc34)c3ccc(Cl)c-2c31` (single isomer, unassigned; enantiomer 2) [Example 57, 4-chloro-12,12-difluoro-2,3-dimethyl-7-{3-[(naphthalen-1-yl)oxy]propyl}-2,10,11,12,13,15-hexahydropyrazolo[4′,3′:9,10][1,6]oxazacycloundecino[8,7,6-hi]indole-8-carboxylic acid-N-ethylethanamine salt—Enantiomer 2], the EC50 in the data set with SUDHL5 cells [1] came out at 3.2 µM; with SUDHL10 cells it was 8 µM. The IC50 in the data set on AMO-1 cells turned out to be 7.6e-06 M; with SUDHL5 cells [2] (setting [4]), 4.9e-06 M.

As for `Cc1c2c(nn1C)COCCCCn1c(C(=O)O)c(CCCOc3cccc4cc(F)ccc34)c3ccc(Cl)c-2c31` (racemic) [Example 14, (rac)-4-chloro-7-{3-[(6-fluoronaphthalen-1-yl)oxy]propyl}-2,3-dimethyl-2,10,11,12,13,15-hexahydropyrazolo[4′,3′:9,10][1,6]oxazacycloundecino[8,7,6-hi]indole-8-carboxylic acid], the IC50 in the data set with AMO-1 cells (Homo sapiens, AMO1, 72 h) was 7.4e-07 M.

In the case of `CCc1nn(CCN2CCOCC2)c2c1-c1c(Cl)ccc3c(CCCOc4cccc5ccccc45)c(C(=O)O)n(c13)CCCCN(C)C2` (single isomer, unassigned; enantiomer 1) [Example 46, 4-chloro-3-ethyl-14-methyl-1-[2-(morpholin-4-yl)ethyl]-7-{3-[(naphthalen-1-yl)oxy]propyl}-10,11,12,13,14,15-hexahydro-1H-pyrazolo[3′,4′:8,9][1,6]diazacycloundecino[10,11,1-hi]indole-8-carboxylic acid (Enantiomer 1)], the IC50 came out at 5.9e-07 M in the data set with AMO-1 cells (Homo sapiens, AMO1, 72 h) and 4e-07 M in the data set with SUDHL5 cells [2] (setting [4]).

Take `CCc1c2c(nn1C)COCCCCn1c(C(=O)O)c(CCCOc3cccc4cc(F)ccc34)c3ccc(Cl)c-2c31` (racemic) [Example 36, (rac)-4-chloro-3-ethyl-7-{3-[(6-fluoronaphthalen-1-yl)oxy]propyl}-2-methyl-2,10,11,12,13,15-hexahydropyrazolo[4′,3′:9,10][1,6]oxazacycloundecino[8,7,6-hi]indole-8-carboxylic acid]: in the data set with AMO-1 cells (Homo sapiens, AMO1, 72 h), the IC50 stood at 2.9e-07 M.

For the molecule `CCc1c2c(nn1C)CN(C)CCCCn1c(C(=O)O)c(CCCOc3cccc4cc(F)ccc34)c3ccc(Cl)c-2c31` (racemic) [Example 5, (rac)-4-chloro-3-ethyl-7-{3-[(6-fluoronaphthalen-1-yl)oxy]propyl}-2,14-dimethyl-10,11,12,13,14,15-hexahydro-2H-pyrazolo[3′,4′:8,9][1,6]diazacycloundecino[10,11,1-hi]indole-8-carboxylic acid], in the data set on AMO-1 cells (Homo sapiens, AMO1, 72 h), the IC50 worked out at 6.1e-07 M.

Molecule `CCc1c2c(nn1C)CN(CCOC)CCCCn1c(C(=O)O)c(CCCOc3cccc4cc(F)ccc34)c3ccc(Cl)c-2c31` (single isomer, unassigned; enantiomer 1) [Example 132, 4-chloro-3-ethyl-7-{3-[(6-fluoronaphthalen-1-yl)oxy]propyl}-14-(2-methoxyethyl)-2-methyl-10,11,12,13,14,15-hexahydro-2H-pyrazolo[3′,4′:8,9][1,6]diazacycloundecino[10,11,1-hi]indole-8-carboxylic acid (Enantiomer 1)] returned an EC50 in the data set on SUDHL5 cells [1] (Homo sapiens, SU-DHL-5, 3 h) of 9.3 µM. Also, the IC50 in the data set on SUDHL5 cells [2] (setting [3]) was 8.2e-06 M.

These data come from patent US11478451B1, “Macrocyclic chlorine substituted indole derivatives” (Bayer Aktiengesellschaft, priority 2017, dated 2022).
